Data on one compound can be found in ChEMBL document CHEMBL4402585 (J Med Chem, 2020).

The subject of data set [1] is MV4-11. As to the kind of experiment: Antiproliferative activity against human MV4-11 cells assessed as reduction in cell viability measured after 72 hrs by Celltitre-glo luminescence assay. Format: functional, cell-based. To be noted: MV4-11, 72 h.
Data set [2] in a line: Half life in Sprague-Dawley rat at 1 mg/kg, iv by LC-MS/MS analysis. It is filed as ADME, organism-based. To be noted: in vivo.
A short description of data set [3]: Clearance in monkey liver microsomes at 0.1 uM preincubated for 10 mins followed by NADPH addition and measured up to 60 mins by LC-MS/MS analysis. Format: ADME, Macaca mulatta, Microsome. The following applies: rhesus monkey, 1 h. (Microsomes from liver hold many membrane-bound enzymes, among them those of drug oxidation.)
Data set [4] is described as follows: Half life in mouse at 3 mg/kg, po by LC-MS/MS analysis. It is filed as ADME, organism-based. The following applies: in vivo.
Data set [5] is described as follows: Half life in rat liver microsomes at 0.1 uM preincubated for 10 mins followed by NADPH addition and measured up to 60 mins by LC-MS/MS analysis. Format: ADME, Microsome.
The target of another data set is Cytochrome P450 2D6 (Homo sapiens, UniProt P10635). In words: Inhibition of CYP2D6 in human liver microsomes using dextromethorphan as substrate preincubated for 10 mins followed by NADPH addition and measured after 15 mins by LC-MS/MS analysis. It is filed as ADME.
Chain of Cytochrome P450 2D6 (P10635 whole entry): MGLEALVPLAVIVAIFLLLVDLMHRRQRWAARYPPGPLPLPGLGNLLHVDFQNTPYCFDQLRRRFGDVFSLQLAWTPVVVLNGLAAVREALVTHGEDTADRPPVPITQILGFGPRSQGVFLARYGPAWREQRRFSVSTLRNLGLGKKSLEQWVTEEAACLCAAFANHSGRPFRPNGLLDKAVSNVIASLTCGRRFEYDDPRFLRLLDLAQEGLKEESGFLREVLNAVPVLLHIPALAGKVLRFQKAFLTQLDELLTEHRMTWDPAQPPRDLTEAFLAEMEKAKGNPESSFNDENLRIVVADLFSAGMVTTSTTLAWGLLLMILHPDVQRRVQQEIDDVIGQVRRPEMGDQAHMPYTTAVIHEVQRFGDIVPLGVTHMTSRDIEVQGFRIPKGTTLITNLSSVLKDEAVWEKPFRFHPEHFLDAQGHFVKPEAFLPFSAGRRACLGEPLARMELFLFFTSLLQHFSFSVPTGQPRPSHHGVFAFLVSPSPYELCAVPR
The nature of data set [6]: Oral bioavailability in Sprague-Dawley rat at 3 mg/kg by LC-MS/MS analysis. It is filed as ADME, organism-based. To be noted: in vivo.
A short description of data set [7]: Half life in human liver microsomes at 0.1 uM preincubated for 10 mins followed by NADPH addition and measured up to 60 mins by LC-MS/MS analysis. It is filed as ADME, Microsome.
In data set [8] the target is Voltage-gated inwardly rectifying potassium channel KCNH2 (Homo sapiens, UniProt Q12809). As to the kind of experiment: Inhibition of human ERG at 40 uM by Qpatch automatic patch clamp method. Background: Patch clamp records ionic current or voltage across a cell membrane.
Chain of Voltage-gated inwardly rectifying potassium channel KCNH2 (Q12809 whole entry): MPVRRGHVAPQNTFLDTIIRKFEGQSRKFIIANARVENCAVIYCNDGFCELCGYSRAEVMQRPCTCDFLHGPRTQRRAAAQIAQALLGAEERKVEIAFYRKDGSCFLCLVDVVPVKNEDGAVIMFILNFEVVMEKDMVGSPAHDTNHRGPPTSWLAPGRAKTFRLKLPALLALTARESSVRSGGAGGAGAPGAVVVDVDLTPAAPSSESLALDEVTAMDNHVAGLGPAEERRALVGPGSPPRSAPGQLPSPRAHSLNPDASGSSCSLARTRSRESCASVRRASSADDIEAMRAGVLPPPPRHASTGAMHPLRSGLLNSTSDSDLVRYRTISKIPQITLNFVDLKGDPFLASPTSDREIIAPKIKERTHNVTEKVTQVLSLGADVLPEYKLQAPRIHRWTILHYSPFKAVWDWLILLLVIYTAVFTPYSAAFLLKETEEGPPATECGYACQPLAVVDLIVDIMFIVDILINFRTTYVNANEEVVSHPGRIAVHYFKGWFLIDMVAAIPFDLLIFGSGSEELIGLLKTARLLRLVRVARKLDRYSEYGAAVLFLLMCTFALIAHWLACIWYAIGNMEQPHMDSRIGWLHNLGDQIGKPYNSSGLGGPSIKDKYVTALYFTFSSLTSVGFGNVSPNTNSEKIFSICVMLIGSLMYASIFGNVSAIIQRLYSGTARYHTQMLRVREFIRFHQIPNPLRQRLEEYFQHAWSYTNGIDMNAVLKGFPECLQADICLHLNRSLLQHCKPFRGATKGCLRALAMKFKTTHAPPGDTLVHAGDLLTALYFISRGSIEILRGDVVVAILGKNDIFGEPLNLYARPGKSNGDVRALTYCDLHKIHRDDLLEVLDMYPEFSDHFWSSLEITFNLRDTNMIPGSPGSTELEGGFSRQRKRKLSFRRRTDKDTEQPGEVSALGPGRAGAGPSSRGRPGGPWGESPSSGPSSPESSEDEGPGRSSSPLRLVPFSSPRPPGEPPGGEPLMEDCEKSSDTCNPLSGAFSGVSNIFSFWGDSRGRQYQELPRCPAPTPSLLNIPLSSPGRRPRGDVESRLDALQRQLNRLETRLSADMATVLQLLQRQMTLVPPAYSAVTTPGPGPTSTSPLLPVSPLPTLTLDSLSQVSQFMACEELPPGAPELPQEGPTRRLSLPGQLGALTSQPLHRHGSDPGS
The subject of data set [9] is MV4-11. As to the kind of experiment: Antitumor activity against human MV4-11 cells xenografted in mouse assessed as tumor growth inhibition at 6.25 mg/kg, po administered for 28 days and measured every 2 to 3 days during compound dosing relative to control. To be noted: MV4-11, po, read-out: TGI. Format: functional.
A further data set has as its target Cytochrome P450 2C19 (Homo sapiens, UniProt P33261). In words: Inhibition of CYP2C19 in human liver microsomes using S-mephenytoin as substrate preincubated for 10 mins followed by NADPH addition and measured after 15 mins by LC-MS/MS analysis. Format: ADME.
Data set [10] can be described thus: Volume of distribution at steady state in mouse at 3 mg/kg, iv by LC-MS/MS analysis. It is filed as ADME, organism-based. The following applies: in vivo, read-out: Vdss.
The nature of data set [11]: Half life in mouse at 3 mg/kg, iv by LC-MS/MS analysis. It is filed as ADME, organism-based. To be noted: in vivo.
Data set [12] is described as follows: Cmax in Sprague-Dawley rat at 3 mg/kg, po by LC-MS/MS analysis. The following applies: in vivo. Also noted: dose 3 mg/kg, route oral. Format: ADME, organism-based.
Another data set deals with Cytochrome P450 2C9 (Homo sapiens, UniProt P11712). As to the kind of experiment: Inhibition of CYP2C9 in human liver microsomes using tolbutamide as substrate preincubated for 10 mins followed by NADPH addition and measured after 15 mins by LC-MS/MS analysis. It is filed as ADME.
Chain of Cytochrome P450 2C9 (P11712 whole entry): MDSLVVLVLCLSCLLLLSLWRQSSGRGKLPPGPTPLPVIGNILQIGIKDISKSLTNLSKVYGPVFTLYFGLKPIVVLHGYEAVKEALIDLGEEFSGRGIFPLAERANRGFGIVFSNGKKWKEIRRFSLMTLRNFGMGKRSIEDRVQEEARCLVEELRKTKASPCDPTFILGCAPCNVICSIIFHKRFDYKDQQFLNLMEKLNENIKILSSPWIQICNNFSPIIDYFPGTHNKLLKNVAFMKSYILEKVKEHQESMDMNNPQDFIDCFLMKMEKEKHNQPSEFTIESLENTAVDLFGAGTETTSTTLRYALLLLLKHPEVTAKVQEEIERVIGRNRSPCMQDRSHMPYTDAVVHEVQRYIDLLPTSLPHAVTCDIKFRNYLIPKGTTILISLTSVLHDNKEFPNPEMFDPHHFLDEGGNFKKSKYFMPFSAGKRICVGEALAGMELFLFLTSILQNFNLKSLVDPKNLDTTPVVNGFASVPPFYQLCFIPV
Data set [13] is described as follows: Volume of distribution at steady state in Sprague-Dawley rat at 1 mg/kg, iv by LC-MS/MS analysis. Format: ADME, organism-based. To be noted: in vivo, read-out: Vdss.

Chain of Cytochrome P450 2C19 (P33261 whole entry): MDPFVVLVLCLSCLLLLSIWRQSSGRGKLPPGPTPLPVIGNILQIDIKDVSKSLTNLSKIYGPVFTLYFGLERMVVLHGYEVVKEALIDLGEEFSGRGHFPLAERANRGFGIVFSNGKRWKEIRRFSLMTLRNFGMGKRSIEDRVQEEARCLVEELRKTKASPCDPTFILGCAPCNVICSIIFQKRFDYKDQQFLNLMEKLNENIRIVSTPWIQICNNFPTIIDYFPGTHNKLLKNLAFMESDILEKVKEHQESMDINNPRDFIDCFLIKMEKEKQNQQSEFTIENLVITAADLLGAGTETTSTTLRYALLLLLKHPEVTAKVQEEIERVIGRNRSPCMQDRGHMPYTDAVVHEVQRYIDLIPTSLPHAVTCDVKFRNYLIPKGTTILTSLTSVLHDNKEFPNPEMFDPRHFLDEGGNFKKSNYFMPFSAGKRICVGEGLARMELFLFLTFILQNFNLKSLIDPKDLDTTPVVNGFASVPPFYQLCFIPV

Regarding `CCS(=O)(=O)Cc1cnc(Oc2ccc(F)cc2F)c(-c2cc(C)c3c(=O)[nH]ccn23)c1`, the IC50 in the data set with MV4-11 [1] was 0.0024 µM; at Cytochrome P450 2D6, over 20 µM; at Cytochrome P450 2C19 it was over 20 µM; against Cytochrome P450 2C9, over 20 µM. Also, the results for the half-life in [2], in [4] and in [11] were 1.3 h, 1.3 h and 0.9 h, respectively. For the same compound, in [3], the CLH was 42.7 mL/min/g. The half-life at 0.1 µM was found to be 0.54 h in data set [5] and 2.87 h in data set [7]. Also, the bioavailability in data set [6] is 34.7%. Further, the “inhibition (INH)” value in [8] is on record as “Not Active”. Further, the inhibition in vivo at 6.25 mg/kg in the data set with MV4-11 [9] was 76.4%. Also, the Vd in [10] came to 0.782 L/kg; in data set [13], 1.46 L/kg. The compound also showed a Cmax in data set [12] of 159 ng/mL.

The term IC50 denotes the concentration at which inhibition is half-maximal. What is called half-life is how long it takes for the measured level to halve. What is called bioavailability is dose-corrected exposure relative to a reference, in per cent. The Cmax is the maximum level reached in the sampled fluid or tissue.
